Test results: patent US4975462A, “Antiarthritic α-arylcarbamoyl cyanoacetic acid derivatives” (Bristol-Myers Company, priority 1988, dated 1990)

Tests used:
[1] = test system: adjuvant-induced arthritis; conditions: J. Med. Chem., 1979, 22:1385-9; cited from earlier work
[2] = test system: carrageenin-induced paw edema; experiment: Carrageenin induced paw edema in the rat (CIP); format: in vivo, male Sprague Dawley rats; conditions: single oral dose of 50 mg/kg 30 min. prior to carrageenin injection; 4 hrs. after carrageenin injection
Procedure: B. Carrageenin induced paw edema in the rat.
This test is based on the procedure originally described by Holsapple and Yim (Inflammation, 1984, 8:223). Six male Sprague Dawley rats weighing approx. 300 gm were used in each experimental group. The rats had been starved for 24 hours prior to injection of 0.1 ml of 1% carrageenin into the plantar surface of the left hind paw. Test compounds were dosed orally 30 minutes prior to carrageenin administration. The volumes of the left hind paws were measured by mercury displacement at 2,4, and 6 hours following carrageenin injection. The efficacy of a compound was expressed as the percent inhibition of carrageenin injected paw volume as compared to non-injected paw using the following equation: [formula]
C=Vehicle control group (left paw volume-right paw volume)
RX=Drug treated group (left paw volume-right paw volume)
The peak of drug effects usually occurred 2-4 hours following carrageenin injection.
^(c) test compound administered as a single oral dose of 50 mg/kg 30
min. prior to carrageenin injection. % Inhibition determined 4 hrs. after
carrageenin injection; I = <25% reduction in paw volume and A =
≥25% reduction in paw volume.

[3] = test system: adjuvant-induced polyarthritis (Mycobacterium butyricum); experiment: Modified developing adjuvant arthritis in rats (adjuvant-induced polyarthritis, AIP); format: in vivo, male Lewis rats; conditions: p.o., from d. 1-8
Procedure: A. Modified developing adjuvant arthritis in rats. This test is based on the procedure originally described by Pearson (Proc. Soc. Biol. Med., 1956, pp 91-5). Each experimental group used six male Lewis rats weighing approx. 250 gm. Arthritis was produced by a single intradermal injection of Mycobacterium butyricum (0.6 mg in 0.1 ml mineral oil) into the base of the tail. Test compounds were administered orally, once daily, starting on the day of inoculation (day 1) through day 8. The paw volume (average of two hind paws) was measured by the mercury displacement method at least twice weekly during the course of the experiment (40 to 42 days). The efficacy of a compound was expressed as the percent reduction of hind paw volume of treated vs. untreated rats using the following equation: [formula] PC=positive control (not treated, arthritic) NC=negative control (not treated, non-arthritic) RX=drug group (treated, arthritic) | ^(a) once daily, p.o., from d. 1-8. | ^(b) % Inhibition of paw edema: O = <25; + = 25-<40; ++ = 40-<60; +++ | = 60-80; ++++ = 80-100.

Row | SMILES | inhibition of adjuvant-induced arthritis in rats [1] | CIP (% Inhibition, reduction in paw volume) [2] | AIP Inhib. score d. 20-22 (% Inhibition of paw edema) ([3]; 50 mg/kg once daily) | AIP Inhib. score d. 40-42 (% Inhibition of paw edema) ([3]; 50 mg/kg once daily) | AIP Inhib. score d. 20-22 (% Inhibition of paw edema) ([3]; 100 mg/kg once daily) | AIP Inhib. score d. 40-42 (% Inhibition of paw edema) ([3]; 100 mg/kg once daily)
1 | N#CCC(=O)c1ccccc1 [Benzoylacetonitrile (I), Benzoylacetonitrile] | effective inhibitors |  |  |  |  | 
2 | CSC(=O)C(C#N)C(=O)Nc1ccc(C(F)(F)F)cc1 (stereo not drawn) [Example 1, β-Methylthio-β-oxo-α-(4-trifluoromethylphenyl)carbamoylpropionitrile] |  | A (≥25% reduction in paw volume) | ++++ (80-100) | ++++ (80-100) |  | 
3 | COC(=O)C(C#N)C(=O)Nc1ccc(C(F)(F)F)cc1 (stereo not drawn) [Example 2, βMethoxy-β-oxo-α-(4-trifluoromethylphenyl)carbamoylpropionitrile] |  | I (<25% reduction in paw volume) |  |  | +++ (60-80) | +++ (60-80)
4 | CNC(=O)C(C#N)C(=O)Nc1ccc(C(F)(F)F)cc1 (stereo not drawn) [Example 3, β-Methylamino-β-oxo-α-(4-trifluoromethylphenyl) carbamoylpropionitrile] |  | A (≥25% reduction in paw volume) | +++ (60-80) | +++ (60-80) |  | 
